Tests used:
[1] = system: human airway smooth muscle strips; assay: Organ bath force, acetylcholine-induced contractions of human airway smooth muscle strips after pretreatment; conditions: 100 μM, separate blockade (alone)
Protocol: Human muscle tissue was acquired from excess lung airways trimmed during surgery from healthy lung transplant donors. Acquired tissue was stored overnight at 20° C. Airway smooth muscle contractions measured ex vivo in organ baths were performed as previously described (Gallos et al., 2008; Gallos et al., 2009, Gallos et al., 2011; Gleason et al., 2010; Yim et al., 2011; Mitzuta et al., 2008). Closed guinea pig tracheal rings or strips of human airway smooth muscle (tracheal or main stem bronchus) were suspended in organ baths, which had 95% oxygen constantly perfusing through Dulbecco's Modified Eagle Medium. Rings were cut on the cartilaginous borders of the smooth muscle. The epithelial layer was dissected under microscopic assistance. […]
Following equilibration, in guinea pig experiments, the capsaicin analog N-vanillylnonanamide (10 μM final) was added to the organ baths to first activate and then deplete nonadrenergic, noncholinergic nerves. […] To avoid bias between treatment groups, tissues were contracted to individually calculated EC50 values for acetylcholine and tissues with similar Emax values were randomly assigned to treatments within individual experiments. […]

[2] = system: human airway smooth muscle cells; assay: MQAE fluorescence assay of intracellular chloride; assay type: cell-based
Protocol: To determine whether blockade of CaCCs or NKCCs induce changes in intracellular chloride concentrations in human airway smooth muscle cells, the MQAE in vitro fluorescent dye assay (Invitrogen) was used. Briefly, human airway smooth muscle cells were grown to 100% confluence in 96-well black-walled plates. Cells were loaded overnight with 10 mM MQAE in serum-free basal cell culture medium (M199, Invitrogen) and were washed once with warmed (37° C.) normal-chloride buffer [consisting of (in mM) 130 sodium chloride, 2 CaCl2, 1 MgCl2, 10 D-glucose, and 10 HEPES, pH 7.4]. […] An increase in fluorescence represents decreased intracellular chloride (removal of halide quenching of MQAE) while decreased fluorescence represents increased intracellular chloride (enhanced halide quenching of MQAE).

[3] = system: human airway smooth muscle; assay: Relaxation of acetylcholine contraction in human airway smooth muscle strips; conditions: 10 μM bumetanide alone
Protocol: Studies using de-identified human tissue were reviewed by the Columbia University Institutional Review Board and deemed not human subjects research. Tissues were obtained from healthy, normal organ donor discarded surgical waste subsequent to lung transplant surgery. Tissues were collected after transplant and placed in DMEM media (GIBCO) and bubbled overnight in 5% carbon dioxide and 95% oxygen at 4° C. The following morning, the smooth muscle tissue was carefully dissected under a dissecting microscope and the epithelium removed. The strips were anchored in the organ bath as described above using KH buffer of the same composition. The strips were allowed to equilibrate for 1 hour with buffer exchanges every 15 minutes and were treated with 10^−6 M tetrodotoxin, 10^−5 M pyrilamine, and 10^−5
M MK571. Strips were contracted with an EC50 dose of acetylcholine (Ach)
This experiment was then repeated with human airway smooth muscle to investigate clinical relevance as a model of bronchospasm in humans.

[4] = system: human airway smooth muscle cells; assay: FLIPR membrane potentiometric dye assay (Example 21); assay type: cell-based
Protocol: Immortalized airway smooth muscle cell lines modified to stably express human telomerase reverse transcriptase were a kind gift from Dr. William Gerthoffer (University of Southern Alabama, Mobile, Ala.) prepared as described previously (Gosens et al., 2006) and grown in Dulbecco's Modified Eagle's Medium/F12 media (GIBCO, Grand Island, N.Y.), with 10% FBS and antibiotics.
Immortalized human airway smooth muscle cells were cultured on black-walled 96 well plates to 100% confluence, and were washed four times with warmed (37° C.) assay buffer of the following composition (in mM): NaCl 140, KCl 4.7, CaCl2 2.5, MgCl2 1.2, HEPES 11, D-glucose 10. A stock solution (100% dye) of FLIPR blue dye was prepared by reconstitution of 1 vial (125 mg) with 100 ml assay buffer. A 50% working stock was prepared by further diluting the reconstituted blue dye 1:1 with assay buffer and was used to load cells (90 μl/well) over 45 min at 37° C. in a humidified cell culture incubator (95% air/5% CO2). All reagents were dissolved in assay buffer. Fluorescence was measured with a Flex Station 3 (Molecular Devices) using an excitation wavelength of 530 nm, emission wavelength of 565 nm and a cutoff filter of 550 nm. Baseline fluorescence was measured every 2 seconds for 1 minute then for 2 minutes after injection of vehicle or compound of interest as indicated (using the Flexstation's 3 integrated injection capabilities).
Human airway smooth muscle cells were incubated with FLIPR membrane potentiometric dye to assess if the chloride channel blockers changed membrane potential at the cellular level. FLIPR fluorescence will increase with depolarization, and decrease with hyperpolarization. […] Therefore, chloride channel blockade, but not NKCC blockade, hyperpolarized human airway smooth muscle cells.

| SMILES | effect on acetylcholine-induced contraction [1] | intracellular chloride (MQAE fluorescence) ([2]; 10 μM bumetanide) | intracellular chloride (MQAE fluorescence) ([2]; 10 μM bumetanide, listed as Bumetanide) | relaxation of acetylcholine contraction [3] | change in membrane potential (FLIPR) ([4]; 10 μM bumetanide) | intracellular chloride (MQAE fluorescence) ([2]; 100 μM niflumic acid) | membrane potential, continuous fluorescence recording (representative tracing) [4] | change in relative fluorescent units (membrane potential, FLIPR) ([4]; 100 μM, n=12) |
| --- | --- | --- | --- | --- | --- | --- | --- | --- |
| CCCCNc1cc(C(=O)O)cc(S(N)(=O)=O)c1Oc1ccccc1 [bumetanide] | does not significantly reduce contraction | impairs chloride entry | decreases [Cl^−]i | failed to relax an acetylcholine contraction | did not cause a significant change | – | – | – |
| O=C(O)c1cccnc1Nc1cccc(C(F)(F)F)c1 [niflumic acid] | does not significantly reduce contraction | – | – | – | – | increases intracellular chloride | hyperpolarize | −254.7+/−37 RFU |

From patent US20140024683A1, “CHLORIDE CHANNEL AND CHLORIDE TRANSPORTER MODULATORS FOR THERAPY IN SMOOTH MUSCLE DISEASES” (priority 2011, published 2014)
